Results from patent US20220204476A1, “RNA VIRUS INHIBITOR COMPOUNDS AND USES THEREOF” (The Governors of the University of Alberta, priority 2020, published 2022).
Where two headings read alike, the source gives them in different places.

How the values were obtained:
[1] = system: SARS-CoV-2; experiment: SARS-CoV-2 in vitro plaque reduction assay in Vero E6 cells; format: cell-based; settings: Severe acute respiratory syndrome coronavirus 2, Vero C1008, MOI 0.0001 pfu/cell, plaques counted after 48 h, >5 μM = did not reduce plaque numbers by half at 10 μM, read-out: SARS-CoV-2 Antiviral EC50
[2] = target: SARS-CoV-2 3CLP (Severe acute respiratory syndrome coronavirus 2, UniProt P0DTD1); experiment: SARS-CoV-2 3CLP inhibition, FRET-based cleavage assay; format: biochemical; settings: 100 μM substrate, 37° C., 10 min incubation, pH 7.8
[3] = 80 nM SARS-CoV-2 3CLP, read-out: 3CL Protease IC50

Row | SMILES | EC50 [1] [nM] | IC50 [2, 3] [nM] | IC50 ([2]; 3CL Protease IC50, 80 nM SARS-CoV-2 3CLP) [nM]
1 | COc1cccc2[nH]c(C(=O)N[C@@H](CC(C)C)C(=O)N[C@@H](C[C@@H]3CCCNC3=O)C(=O)COC(=O)C(C)(C)C)cc12 [Compound 1, (3S)-3-{[N-(4-methoxy-1H-indole-2-carbonyl)-L-leucyl]amino}-2-oxo-4-[(3S)-2-oxopiperidin-3-yl]butyl 2,2-dimethylpropanoate] | > 5000 | 64 | –
2 | COc1cccc2[nH]c(C(=O)N[C@@H](CC(C)C)C(=O)N[C@@H](C[C@@H]3CCCNC3=O)C(=O)COC(=O)C3(C#N)CC3)cc12 [Compound 12, (3S)-3-{[N-(4-methoxy-1H-indole-2-carbonyl)-L-leucyl]amino}-2-oxo-4-[(3S)-2-oxopiperidin-3-yl]butyl 1-cyanocyclopropane-1-carboxylate] | > 5000 | 16 | –
3 | COc1cccc2[nH]c(C(=O)N[C@@H](CC(C)C)C(=O)N[C@@H](C[C@@H]3CCCNC3=O)C(=O)COC(=O)c3ccncc3)cc12 [Compound 8, (3S)-3-{[N-(4-methoxy-1H-indole-2-carbonyl)-L-leucyl]amino}-2-oxo-4-[(3S)-2-oxopiperidin-3-yl]butyl pyridine-4-carboxylate] | > 5000 | – | –
4 | CC(C)C[C@H](NS(=O)(=O)N1CCCCC1)C(=O)N[C@H](C#N)C[C@@H]1CCCNC1=O [Compound 83, N-{(1S)-1-cyano-2-[(3S)-2-oxopiperidin-3-yl]ethyl}-N^2-(piperidine-1-sulfonyl)-L-leucinamide] | > 5000 | 4500 | –
5 | CC(C)(C)C[C@H](NC(=O)[C@@H]1CCCN1)C(=O)N[C@H](C#N)C[C@@H]1CCCNC1=O [Compound 90, prolyl-N-{(1S)-1-cyano-2-[(3S)-2-oxopiperidin-3-yl]ethyl}-4-methyl-L-leucinamide] | > 5000 | 1100 | –
6 | CC(C)C[C@H](NC(=O)c1cc2ccccc2o1)C(=O)N[C@H](C#N)C[C@@H]1CCCNC1=O [Compound 79, N-[(2S)-1-({(1S)-1-cyano-2-[(3S)-2-oxopiperidin-3-yl]ethyl}amino)-4-methyl-1-oxopentan-2-yl]-1-benzofuran-2-carboxamide] | 4500 | 250 | –
7 | COc1cccc2[nH]c(C(=O)N[C@@H](CC(C)C)C(=O)N[C@@H](C[C@@H]3CCCNC3=O)C(=O)COC(=O)C3(C)COC(C)(C)OC3)cc12 [Compound 9, (3S)-3-{[N-(4-methoxy-1H-indole-2-carbonyl)-L-leucyl]amino}-2-oxo-4-[(3S)-2-oxopiperidin-3-yl]butyl 2,2,5-trimethyl-1,3-dioxane-5-carboxylate] | > 5000 | 55 | –
8 | COc1cccc2[nH]c(C(=O)N[C@@H](CC(C)C)C(=O)N[C@@H](C[C@@H]3CCCNC3=O)C(=O)COC(=O)C3(C#N)CCCC3)cc12 [Compound 19, (3S)-3-{[N-(4-methoxy-1H-indole-2-carbonyl)-L-leucyl]amino}-2-oxo-4-[(3S)-2-oxopiperidin-3-yl]butyl 1-cyanocyclopentane-1-carboxylate] | > 5000 | 26 | –
9 | CC(C)C[C@H](NCc1ncco1)C(=O)N[C@H](C#N)C[C@@H]1CCCNC1=O [Compound 91, N-{(1S)-1-cyano-2-[(3S)-2-oxopiperidin-3-yl]ethyl}-N^2-[(1,3-oxazol-2-yl)methyl]-L-leucinamide] | > 5000 | 37000 | –
10 | COc1nccc2[nH]c(C(=O)N[C@@H](CC(C)(C)C)C(=O)N[C@H](C#N)C[C@@H]3CCCNC3=O)cc12 [Compound 99, N-[(2S)-1-({(1S)-1-cyano-2-[(3S)-2-oxopiperidin-3-yl]ethyl}amino)-4,4-dimethyl-1-oxopentan-2-yl]-4-methoxy-1H-pyrrolo[3,2-c]pyridine-2-carboxamide] | > 5000 | 22 | –
11 | CC(C)C[C@H](NC(=O)OCC1c2ccccc2-c2ccccc21)C(=O)N[C@H](C#N)C[C@@H]1CCCNC1=O [Compound 67, N-{(1S)-1-cyano-2-[(3S)-2-oxopiperidin-3-yl]ethyl}-N^2-{[(9H-fluoren-9-yl)methoxy]carbonyl}-L-leucinamide] | 4100 | 170 | –
12 | COc1cccc2[nH]c(C(=O)N[C@@H](CC(C)C)C(=O)N[C@@H](C[C@@H]3CCCNC3=O)C(=O)COC(=O)c3ccc(C(C)(C)C)nc3)cc12 [Compound 11, (3S)-3-{[N-(4-methoxy-1H-indole-2-carbonyl)-L-leucyl]amino}-2-oxo-4-[(3S)-2-oxopiperidin-3-yl]butyl 6-tert-butylpyridine-3-carboxylate] | > 5000 | 19 | –
13 | COc1cccc2[nH]c(C(=O)N[C@@H](CC(C)C)C(=O)N[C@@H](C[C@@H]3CCCNC3=O)C(=O)COC(=O)c3cnc(C)cc3C)cc12 [Compound 22, (3S)-3-{[N-(4-methoxy-1H-indole-2-carbonyl)-L-leucyl]amino}-2-oxo-4-[(3S)-2-oxopiperidin-3-yl]butyl 4,6-dimethylpyridine-3-carboxylate] | > 5000 | 17 | –
14 | CC(C)C[C@H](NS(=O)(=O)c1cccc2c1OCCO2)C(=O)N[C@H](C#N)C[C@@H]1CCCNC1=O [Compound 82, N-{(1S)-1-cyano-2-[(3S)-2-oxopiperidin-3-yl]ethyl}-N^2-(2,3-dihydro-1,4-benzodioxine-5-sulfonyl)-L-leucinamide] | > 5000 | 2400 | –
15 | CC(C)C[C@H](NCC1Cc2ccccc2O1)C(=O)N[C@H](C#N)C[C@@H]1CCCNC1=O (single isomer, unassigned) [Compound 96] | > 5000 | 46000 | –
16 | COc1cc(Cl)cc2[nH]c(C(=O)N[C@@H](CC(C)C)C(=O)N[C@H](C#N)C[C@@H]3CCCNC3=O)cc12 [Compound 68, 6-chloro-N-[(2S)-1-({(1S)-1-cyano-2-[(3S)-2-oxopiperidin-3-yl]ethyl}amino)-4-methyl-1-oxopentan-2-yl]-4-methoxy-1H-indole-2-carboxamide] | 2200 | 9.1 | –
17 | N#C[C@H](C[C@@H]1CCNC1=O)NC(=O)[C@H](CC1CCCCC1)NC(=O)OCc1cccc(Cl)c1 [Compound 94, (3-chlorophenyl)methyl [(2S)-1-({(1S)-1-cyano-2-[(3S)-2-oxopyrrolidin-3-yl]ethyl}amino)-3-cyclohexyl-1-oxopropan-2-yl]carbamate] | > 5000 | 160 | –
18 | COc1cccc2[nH]c(C(=O)N[C@@H](CC(C)C)C(=O)N[C@@H](C[C@@H]3CCCNC3=O)C(=O)COc3ccc(S(C)(=O)=O)cc3)cc12 [Compound 30, N-[(2S)-1-({(2S)-4-[4-(methanesulfonyl)phenoxy]-3-oxo-1-[(3S)-2-oxopiperidin-3-yl]butan-2-yl}amino)-4-methyl-1-oxopentan-2-yl]-4-methoxy-1H-indole-2-carboxamide] | > 5000 | 53 | –
19 | CC(C)(C)C[C@H](NC(=O)[C@H]1Cc2ccccc2N1C(=O)OCc1ccccc1)C(=O)N[C@H](C#N)C[C@@H]1CCCNC1=O [Compound 101, benzyl (2R)-2-{[(2S)-1-({(1S)-1-cyano-2-[(3S)-2-oxopiperidin-3-yl]ethyl}amino)-4,4-dimethyl-1-oxopentan-2-yl]carbamoyl}-2,3-dihydro-1H-indole-1-carboxylate] | > 5000 | 180 | –
20 | COc1cccc2[nH]c(C(=O)N[C@@H](CC(C)C)C(=O)N[C@@H](C[C@@H]3CCCNC3=O)C(=O)COC(=O)c3c(F)c(F)c(F)c(F)c3F)cc12 [Compound 7, (3S)-3-{[N-(4-methoxy-1H-indole-2-carbonyl)-L-leucyl]amino}-2-oxo-4-[(3S)-2-oxopiperidin-3-yl]butyl pentafluorobenzoate] | > 5000 | – | –
21 | CC(C)(C)C[C@H](NC(=O)c1nc2ccccc2[nH]1)C(=O)N[C@H](C#N)C[C@@H]1CCCNC1=O [Compound 88, N-[(2S)-1-({(1S)-1-cyano-2-[(3S)-2-oxopiperidin-3-yl]ethyl}amino)-4,4-dimethyl-1-oxopentan-2-yl]-1H-benzimidazole-2-carboxamide] | > 5000 | 40 | –
22 | COc1cccc2[nH]c(C(=O)N[C@@H](CC(C)C)C(=O)N[C@@H](C[C@@H]3CCCNC3=O)C(=O)COC(=O)c3c(C)cc(C)nc3C)cc12 [Compound 23, (3S)-3-{[N-(4-methoxy-1H-indole-2-carbonyl)-L-leucyl]amino}-2-oxo-4-[(3S)-2-oxopiperidin-3-yl]butyl 2,4,6-trimethylpyridine-3-carboxylate] | – | – | 36
23 | COc1cccc2[nH]c(C(=O)N[C@@H](CC(C)C)C(=O)N[C@H](C#N)C[C@@H]3CCNC3=O)cc12 [Compound 24, N-[(2S)-1-({(1S)-1-cyano-2-[(3S)-2-oxopyrrolidin-3-yl]ethyl}amino)-4-methyl-1-oxopentan-2-yl]-4-methoxy-1H-indole-2-carboxamide] | > 5000 | – | –
24 | COc1cccc2[nH]c(C(=O)N[C@@H](CC(C)C)C(=O)N[C@@H](C[C@@H]3CCNC3=O)C(=O)COC(=O)c3c(C(F)(F)F)cc(C)nc3C)cc12 [Compound 26, (3S)-3-{[N-(4-methoxy-1H-indole-2-carbonyl)-L-leucyl]amino}-2-oxo-4-[(3S)-2-oxopyrrolidin-3-yl]butyl 2,6-dimethyl-4-(trifluoromethyl)pyridine-3-carboxylate] | – | 17 | –
25 | COc1cccc2[nH]c(C(=O)N[C@@H](CC(C)C)C(=O)N[C@@H](C[C@@H]3CCCNC3=O)C(=O)COC(=O)c3c(C)nc(C)nc3C)cc12 [Compound 72, 3-{[N-(4-methoxy-1H-indole-2-carbonyl)leucyl]amino}-2-oxo-4-(2-oxopiperidin-3-yl)butyl 2,4,6-trimethylpyrimidine-5-carboxylate] | – | 22 | –
26 | [2H]C1([2H])CC[C@@H](C[C@@H](C#N)NC(=O)[C@H](CC(C)(C)C)NC(=O)c2cc3c(OC)cccc3[nH]2)C(=O)N1 [Compound 104, N-[(2S)-1-({(1S)-1-cyano-2-[(3S)-2-oxo(6,6-d2)piperidin-3-yl]ethyl}amino)-4,4-dimethyl-1-oxopentan-2-yl]-4-methoxy-1H-indole-2-carboxamide] | > 5000 | – | –
